Laboratory results published in patent US20110136666A1, “CHEMICAL COMPOUNDS” (SYNGENTA CROP PROTECTION, INC., priority 2008, published 2011).

The molecules below were run on Alopecurus myosuroides (ALOMY) (assay: Pre-emergence biological efficacy, glasshouse pot test). Details: 312 h, 250 g/ha, after 13 days, 100=total damage, 0=no damage, read-out: Percentage damage caused to weed species ALOMY.
Format: in vivo
Method: (§1) Seeds of Alopecurus myosuroides (ALOMY), Setaria faberi (SETFA), Echinochloa crus-galli (ECHCG), Solanum nigrum (SOLNI), Amaranthus retroflexus (AMARE) and Ipomea hederaceae (IPOHE) were sown in standard soil in pots. After cultivation for one day under controlled conditions in a glasshouse (at 24/16° C., day/night; 14 hours light; 65% humidity), the plants were sprayed with an aqueous spray solution derived from the formulation of the technical active ingredient in acetone/water (50:50) solution containing 0.5% Tween 20 (polyoxyethylene sorbitan monolaurate, CAS RN 9005-64-5) to give a final dose of 250 or 1000 g/ha of test compound.
(§2) The test plants were then grown under controlled conditions in the glasshouse (at 24/16° C., day/night; 14 hours light; 65% humidity) and watered twice daily. After 13 days the test was evaluated (100=total damage to plant; 0=no damage to plant).
With COC(=O)c1nc(-c2cccnc2OCC(F)(F)F)nc(N)c1Cl [Compound 2-166, 4-Amino-5-chloro-6-methoxycarbonyl-2-(2-[2,2,2-trifluoroethoxy]-pyridin-3-yl)-pyrimidine] the pest or weed control at 250 g/ha was 0%. COC(=O)c1nc(-c2cccnc2F)nc(N)c1Cl [Compound 2-172, 4-Amino-5-chloro-2-(2-fluoropyridin-3-yl)-6-methoxycarbonyl pyrimidine] showed a pest or weed control at 250 g/ha of 0%.

Each molecule was assayed on Amaranthus retroflexus (AMARE) in the same assay as above. Details: 312 h, 250 g/ha, after 13 days, 100=total damage, 0=no damage, read-out: Percentage damage caused to weed species AMARE.
Format: in vivo
Method: as §1, §2
Molecule COC(=O)c1nc(-c2cccnc2OCC(F)(F)F)nc(N)c1Cl [Compound 2-166, 4-Amino-5-chloro-6-methoxycarbonyl-2-(2-[2,2,2-trifluoroethoxy]-pyridin-3-yl)-pyrimidine] has a pest or weed control at 250 g/ha of 0%. In the case of COC(=O)c1nc(-c2cccnc2F)nc(N)c1Cl [Compound 2-172, 4-Amino-5-chloro-2-(2-fluoropyridin-3-yl)-6-methoxycarbonyl pyrimidine], the pest or weed control at 250 g/ha is reported as 0%.

What follows are molecules tested on Echinochloa crus-galli (ECHCG) in the same assay as above. Details: 312 h, 250 g/ha, after 13 days, 100=total damage, 0=no damage, read-out: Percentage damage caused to weed species ECHCG.
Format: in vivo
Method: as §1, §2
In the case of COC(=O)c1nc(-c2cccnc2OCC(F)(F)F)nc(N)c1Cl [Compound 2-166, 4-Amino-5-chloro-6-methoxycarbonyl-2-(2-[2,2,2-trifluoroethoxy]-pyridin-3-yl)-pyrimidine], the pest or weed control at 250 g/ha is reported as 0%. Work on COC(=O)c1nc(-c2cccnc2F)nc(N)c1Cl [Compound 2-172, 4-Amino-5-chloro-2-(2-fluoropyridin-3-yl)-6-methoxycarbonyl pyrimidine] yielded a pest or weed control at 250 g/ha of 0%.

What follows are molecules tested on Ipomea hederaceae (IPOHE) in the same assay as above. Details: Ipomoea hederacea, 312 h, 250 g/ha, after 13 days, 100=total damage, 0=no damage, read-out: Percentage damage caused to weed species IPOHE.
Format: in vivo
Method: as §1, §2
COC(=O)c1nc(-c2cccnc2OCC(F)(F)F)nc(N)c1Cl [Compound 2-166, 4-Amino-5-chloro-6-methoxycarbonyl-2-(2-[2,2,2-trifluoroethoxy]-pyridin-3-yl)-pyrimidine] showed a pest or weed control at 250 g/ha of 0%. Work on COC(=O)c1nc(-c2cccnc2F)nc(N)c1Cl [Compound 2-172, 4-Amino-5-chloro-2-(2-fluoropyridin-3-yl)-6-methoxycarbonyl pyrimidine] yielded a pest or weed control at 250 g/ha of 0%.

Each molecule was assayed on Setaria faberi (SETFA) in the same assay as above. Details: 312 h, 250 g/ha, after 13 days, 100=total damage, 0=no damage, read-out: Percentage damage caused to weed species SETFA.
Format: in vivo
Method: as §1, §2
Work on COC(=O)c1nc(-c2cccnc2OCC(F)(F)F)nc(N)c1Cl [Compound 2-166, 4-Amino-5-chloro-6-methoxycarbonyl-2-(2-[2,2,2-trifluoroethoxy]-pyridin-3-yl)-pyrimidine] yielded a pest or weed control at 250 g/ha of 0%. COC(=O)c1nc(-c2cccnc2F)nc(N)c1Cl [Compound 2-172, 4-Amino-5-chloro-2-(2-fluoropyridin-3-yl)-6-methoxycarbonyl pyrimidine] was tested, and the pest or weed control at 250 g/ha was 0%.

The molecules below were run on Solanum nigrum (SOLNI) in the same assay as above. Details: 312 h, 250 g/ha, after 13 days, 100=total damage, 0=no damage, read-out: Percentage damage caused to weed species SOLNI.
Format: in vivo
Method: as §1, §2
Work on COC(=O)c1nc(-c2cccnc2OCC(F)(F)F)nc(N)c1Cl [Compound 2-166, 4-Amino-5-chloro-6-methoxycarbonyl-2-(2-[2,2,2-trifluoroethoxy]-pyridin-3-yl)-pyrimidine] yielded a pest or weed control at 250 g/ha of 0%. Molecule COC(=O)c1nc(-c2cccnc2F)nc(N)c1Cl [Compound 2-172, 4-Amino-5-chloro-2-(2-fluoropyridin-3-yl)-6-methoxycarbonyl pyrimidine] has a pest or weed control at 250 g/ha of 0%.

What follows are molecules tested on Alopecurus myosuroides (ALOMY) (assay: Post-emergence biological efficacy, glasshouse pot test). Details: 312 h, 250 g/ha, after 13 days, 100=total damage, 0=no damage, read-out: Percentage damage caused to weed species ALOMY.
Format: in vivo
Method: as §1, with “8 days” for “one day”
(§3) The test plants were then grown on under controlled conditions in a glasshouse (at 24/16° C., day/night; 14 hours light; 65% humidity) and watered twice daily. After 13 days the test was evaluated (100=total damage to plant; 0=no damage to plant).
COC(=O)c1nc(-c2cccnc2OCC(F)(F)F)nc(N)c1Cl [Compound 2-166, 4-Amino-5-chloro-6-methoxycarbonyl-2-(2-[2,2,2-trifluoroethoxy]-pyridin-3-yl)-pyrimidine] was tested, and the pest or weed control at 250 g/ha was 0%. COC(=O)c1nc(-c2cccnc2F)nc(N)c1Cl [Compound 2-172, 4-Amino-5-chloro-2-(2-fluoropyridin-3-yl)-6-methoxycarbonyl pyrimidine] gave a pest or weed control at 250 g/ha of 10%.

Each molecule was assayed on Amaranthus retroflexus (AMARE) in the same assay as above. Details: 312 h, 250 g/ha, after 13 days, 100=total damage, 0=no damage, read-out: Percentage damage caused to weed species AMARE.
Format: in vivo
Method: as §1, with “8 days” for “one day”
as §3
Work on COC(=O)c1nc(-c2cccnc2OCC(F)(F)F)nc(N)c1Cl [Compound 2-166, 4-Amino-5-chloro-6-methoxycarbonyl-2-(2-[2,2,2-trifluoroethoxy]-pyridin-3-yl)-pyrimidine] yielded a pest or weed control at 250 g/ha of 0%. For COC(=O)c1nc(-c2cccnc2F)nc(N)c1Cl [Compound 2-172, 4-Amino-5-chloro-2-(2-fluoropyridin-3-yl)-6-methoxycarbonyl pyrimidine], the pest or weed control at 250 g/ha was 0%.

Each molecule was assayed on Echinochloa crus-galli (ECHCG) in the same assay as above. Details: 312 h, 250 g/ha, after 13 days, 100=total damage, 0=no damage, read-out: Percentage damage caused to weed species ECHCG.
Format: in vivo
Method: as §1, with “8 days” for “one day”
as §3
For COC(=O)c1nc(-c2cccnc2OCC(F)(F)F)nc(N)c1Cl [Compound 2-166, 4-Amino-5-chloro-6-methoxycarbonyl-2-(2-[2,2,2-trifluoroethoxy]-pyridin-3-yl)-pyrimidine], the pest or weed control at 250 g/ha was 0%. COC(=O)c1nc(-c2cccnc2F)nc(N)c1Cl [Compound 2-172, 4-Amino-5-chloro-2-(2-fluoropyridin-3-yl)-6-methoxycarbonyl pyrimidine] showed a pest or weed control at 250 g/ha of 0%.

What follows are molecules tested on Ipomea hederaceae (IPOHE) in the same assay as above. Details: Ipomoea hederacea, 312 h, 250 g/ha, after 13 days, 100=total damage, 0=no damage, read-out: Percentage damage caused to weed species IPONE.
Format: in vivo
Method: as §1, with “8 days” for “one day”
as §3
Molecule COC(=O)c1nc(-c2cccnc2OCC(F)(F)F)nc(N)c1Cl [Compound 2-166, 4-Amino-5-chloro-6-methoxycarbonyl-2-(2-[2,2,2-trifluoroethoxy]-pyridin-3-yl)-pyrimidine] has a pest or weed control at 250 g/ha of 0%. With COC(=O)c1nc(-c2cccnc2F)nc(N)c1Cl [Compound 2-172, 4-Amino-5-chloro-2-(2-fluoropyridin-3-yl)-6-methoxycarbonyl pyrimidine] the pest or weed control at 250 g/ha was 10%.

The molecules below were run on Setaria faberi (SETFA) in the same assay as above. Details: 312 h, 250 g/ha, after 13 days, 100=total damage, 0=no damage, read-out: Percentage damage caused to weed species SETFA.
Format: in vivo
Method: as §1, with “8 days” for “one day”
as §3
For COC(=O)c1nc(-c2cccnc2OCC(F)(F)F)nc(N)c1Cl [Compound 2-166, 4-Amino-5-chloro-6-methoxycarbonyl-2-(2-[2,2,2-trifluoroethoxy]-pyridin-3-yl)-pyrimidine], the pest or weed control at 250 g/ha was 0%. COC(=O)c1nc(-c2cccnc2F)nc(N)c1Cl [Compound 2-172, 4-Amino-5-chloro-2-(2-fluoropyridin-3-yl)-6-methoxycarbonyl pyrimidine] gave a pest or weed control at 250 g/ha of 10%.

The molecules below were run on Solanum nigrum (SOLNI) in the same assay as above. Details: 312 h, 250 g/ha, after 13 days, 100=total damage, 0=no damage, read-out: Percentage damage caused to weed species SOLNI.
Format: in vivo
Method: as §1, with “8 days” for “one day”
as §3
COC(=O)c1nc(-c2cccnc2OCC(F)(F)F)nc(N)c1Cl [Compound 2-166, 4-Amino-5-chloro-6-methoxycarbonyl-2-(2-[2,2,2-trifluoroethoxy]-pyridin-3-yl)-pyrimidine] showed a pest or weed control at 250 g/ha of 0%. For COC(=O)c1nc(-c2cccnc2F)nc(N)c1Cl [Compound 2-172, 4-Amino-5-chloro-2-(2-fluoropyridin-3-yl)-6-methoxycarbonyl pyrimidine], the pest or weed control at 250 g/ha was 60%.
